From US20240041042A1, “1-(PYRIDYL)-5-AZINYLPYRAZOLE DERIVATIVES, AND THEIR USE FOR CONTROL OF UNDESIRED PLANT GROWTH” (Bayer Aktiengesellschaft, priority 2020, published 2024)
Like-named read-outs stand apart in the source and are kept apart here.

What was measured:
Assay type in all cases: in vivo
[1] = tested on: Echinochloa crus-galli (ECHCG); experiment: Post-emergence herbicidal action against ECHCG; settings: dosage 320 g/ha
Procedure, shortened: (§1)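 Doses of 320 g/ha or lower, suffixes a, b and c marking different dosages, were applied post-emergence at the one-leaf stage in 600 l/ha water with 0.5% additive. Damage was assessed visually after about 3 weeks in the greenhouse.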

Lolium rigidum (LOLRI) = experiment: Post-emergence herbicidal action against LOLRI
Procedure, shortened: as §1

Zea mays (ZEAMX) = settings: for Post-emergence action against ZEAMX in % (crop plant compatibility): 20 g/ha, effect in comparison to untreated controls; for Post-emergence action against ZEAMX in %: crop plant compatibility, effect vs untreated controls
Procedure, shortened: (§2)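 Visual rating (% effect vs. untreated plants; 100% = plant death) made about 3 weeks after treatment. Plants had been sprayed at one-leaf stage, 2–3 weeks post-sowing, with aqueous WP/EC preparations containing 0.5% additive, 600 l/ha water volume; a, b, c mark dose levels.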

Oryza sativa (ORYSA) = settings: crop plant compatibility
Procedure, shortened: as §2

[2] = tested on: Triticum aestivum (TRZAS); settings: crop plant compatibility, 20 g/ha, effect vs untreated controls
Procedure, shortened: as §2

Setaria viridis (SETVI) = experiment: Post-emergence herbicidal action against SETVI; settings: dosage 320 g/ha
Procedure, shortened: as §1

[3] = tested on: Verconica persica (VERPE); experiment: Post-emergence herbicidal action against VERPE
Procedure, shortened: as §1

[4] = tested on: Alopecurus myosuroides (ALOMY); experiment: Post-emergence herbicidal action against ALOMY; settings: visual rating about 3 weeks after treatment vs untreated controls (100% = plants have died, 0% = like control plants)
Procedure, shortened: as §1

[5] = tested on: Digitaria sanguinalis (DIGSA); experiment: Post-emergence herbicidal action against DIGSA; settings: 320 g/ha, visual rating about 3 weeks after treatment
Procedure, shortened: as §1

Viola tricolor (VIOTR) = experiment: Post-emergence herbicidal action against VIOTR
Procedure, shortened: as §1

[6] = tested on: Polygonum convolvulus (POLCO); experiment: Post-emergence herbicidal action against POLCO; settings: dosage 320 g/ha
Procedure, shortened: as §1

[7] = tested on: Amaranthus retroflexus (AMARE); experiment: Post-emergence herbicidal action against AMARE
Procedure, shortened: as §1

[8] = tested on: Pharbitis purpurea (PHBPU); experiment: Post-emergence herbicidal action against PHBPU; settings: dosage 320 g/ha
Procedure, shortened: as §1

[9] = tested on: Abutilon theophrasti (ABUTH); experiment: Post-emergence herbicidal action against ABUTH; settings: 320 g/ha, visual rating about 3 weeks after treatment vs untreated controls (100% = plants have died, 0% = like control plants)
Procedure, shortened: as §1

[10] = 20 g/ha, effect vs untreated controls
[11] = 80 g/ha, effect in comparison to untreated controls
[12] = 320 g/ha, effect in comparison to untreated controls

| Compound | Post-emergence action against ECHCG in % [1] | Post-emergence action against ZEAMX in % (crop plant compatibility) (Zea mays (ZEAMX)) | Post-emergence action against ORYSA in % (Oryza sativa (ORYSA); [10]) | Post-emergence action against ORYSA in % (Oryza sativa (ORYSA); [11]) | Post-emergence action against TRZAS in % [2] | Post-emergence action against SETVI in % (Setaria viridis (SETVI)) | Post-emergence action against VERPE in % ([3]; 320 g/ha, VERPE) | Post-emergence action against VERPE in % ([3]; dosage 80 g/ha) | Post-emergence action against ALOMY in % ([4]; 320 g/ha) | Post-emergence action against DIGSA in % [5] | Post-emergence action against VIOTR in % (Viola tricolor (VIOTR); 320 g/ha) | Post-emergence action against ZEAMX in % (Zea mays (ZEAMX); 80 g/ha) | Post-emergence action against ORYSA in % (Oryza sativa (ORYSA); [12]) | other results |
| --- | --- | --- | --- | --- | --- | --- | --- | --- | --- | --- | --- | --- | --- | --- |
| COC(=O)[C@@H](C)Oc1nn(-c2ncccc2F)c(-c2ccnc(F)c2)c1Br [Example I-134] | 80% | 10% | 0% | 10% | 20% | 80% | 80% | 80% | 90% | 80% | – | – | – | Post-emergence action against LOLRI in % (Lolium rigidum (LOLRI); dosage 80 g/ha): 80%; Post-emergence action against LOLRI in % (Lolium rigidum (LOLRI); dosage 320 g/ha): 90% |
| O=C(O)COc1nn(-c2ncccc2F)c(-c2ccnc(F)c2)c1Br [Example I-139] | 80% | 0% | 0% | 0% | 0% | – | 90% | 80% | 90% | 90% | 90% | 0% | 10% | Post-emergence action against VIOTR in % (Viola tricolor (VIOTR); 80 g/ha): 80%; Post-emergence action against ZEAMX in % (Zea mays (ZEAMX); 320 g/ha): 10%; Post-emergence action against POLCO in % [6]: 90%; Post-emergence action against AMARE in % ([7]; 80 g/ha, visual rating about 3 weeks after treatment vs untreated controls (100% = plants have died, 0% = like control plants)): 80%; Post-emergence action against AMARE in % ([7]; 320 g/ha, visual rating about 3 weeks after treatment): 90%; Post-emergence action against PHBPU in % [8]: 80%; Post-emergence action against ALOMY in % ([4]; 80 g/ha): 90%; Post-emergence action against ABUTH in % [9]: 80% |
| COC(=O)C(C)NC(=O)C(C)Oc1nn(-c2ccccn2)c(-c2ccc(F)nc2)c1Br (stereo not drawn) [Example I-286] | 80% | 10% | 10% | 20% | 20% | 80% | – | – | – | 90% | 80% | 20% | 20% | – |
